Values quoted from earlier work as cited in US7253193B2, “Cyanoguanidine prodrugs” (LEO Pharma A/S, priority 2002, dated 2007).

Experiments:
[1] = tested on: human lung cancer tumour xenograft
human tumour cells = conditions: also against tumour cells resistant to conventional anticancer drugs such as paclitaxel
[2] = tested on: human lung and breast cancer cell lines

N#CNC(=Nc1ccncc1)NCCCCCCOc1ccc(Cl)cc1 [N-(6-(4-chlorophenoxy)hexyl)-N′-cyano-N″-(4-pyridyl)guanidine]
antitumour activity in the nude mouse model [1]: potent antitumour activity | antitumour activity in vivo (human tumour cells): substantial antitumour activity | antiproliferative activity in vitro [2]: high antiproliferative activity in vitro
